Peptide text beside a SMILES is read from it. * marks the point of attachment. Cbz = O=C(OCc1ccccc1)*
Legend:
[1] = test system: GSK3β, active β-catenin and Snail; test: Western blotting of GSK3β, active β-catenin, Snail and EMT proteins in HCT116 cells; type: cell-based, human
Method: FIGS. 4A to 4L. EpEX induces EMT and invasion by stabilizing β-catenin and Snail through decreasing GSK3β activity. (FIG. 4A) The protein expression of EMT markers and regulators was detected by Western blotting in Wild-type (WT) or EpCAM knockout (KO) HCT116 cells after EpEX treatment. (FIG. 4B) Cell invasion was examined by Transwell chamber assay with matrigel. (FIG. 4C) WT or KO HCT116 and HT29 cells were starved for 16 h, then treated with 0.5 nM of HGF with 2% FBS for 24 h. EMT-related protein expression (E-cadherin, vimentin, and Snail) was examined by Western blotting. (FIG. 4D) WT or KO HCT116 and HT29 cells were treated with HGF (0.5 nM) for 24 h. Invasion by HCT116 and HT29 cells was examined by Transwell chamber assay with matrigel. (FIG. 4E) HCT116 and HT29 cells were starved for 16 h, then treated with 0.5 nM of HGF with 2% FBS for 24 h. EMT-related protein expression (E-cadherin, Vimentin, and Snail) was examined by Western blotting. (FIG. 4F) HCT116 and HT29 cells were starved for 16 h, then treated with 0.5 nM of HGF with 2% FBS for 24 h. Cell invasion was assessed by a Transwell assay with matrigel. (FIG. 4G) HCT116 cells after shLuc and shHGFR treatment were treated with 50 nM of EpEX-His. HCT116 cells after shLuc and shHGFR treatment were treated with 50 nM of EpEX-His with 2% FBS for 24 h. EMT-related protein expression (E-cadherin, Vimentin, and Snail) was examined by Western blotting. (FIG. 4H) Cell invasion was examined by Transwell chamber assay with matrigel. (FIG. 4I) Starved HCT116 cells were treated SU (10 μM) for 1 h, followed by treatment with EpEX-His (50 nM) for 24 h. Phosphorylated GSK3β, active-β-catenin, and Snail were detected by Western blotting. (FIG. 4J) HCT116 cells were starved for 16 h, then treated with 50 nM EpEX-His for 24 min. AKT inhibitor LY294002 (25 μM), ERK inhibitor U0126 (20 μM), or PF-562271 (10 μM) were applied 1 h before EpEX treatment. Protein expression of phosphorylated GSK3β and Snail was examined by Western blotting. (FIG. 4K) HCT116 cells were starved for 16 h, then treated with 50 nM EpEX, and SU (10 μM), LY (25 μM), UO (20 μM) or PF (10 μM). Cell invasion was examined by Transwell chamber assay with matrigel. (FIG. 4L) Protein expression was analyzed by Western blotting in EpEX-His (50 nM) treated HCT116 cells after treatment with or without 2 μM GSK3β inhibitor (BIO) for 24 h. Quantification of the normalized protein expression in the right panel.
FIGS. 5A to 5I. EpEX promotes Snail protein stability through inhibition of ubiquitination-mediated proteasomal degradation. (FIG. 5A) The gene expression of EMT markers and regulators was detected by qRT-PCR in Wild-type (WT) or EpCAM knockout (KO) of HCT116 and HT29 cells. (FIG. 5B) Stability of Snail protein in WT or KO of HCT116 cells. Cells were treated with cyclohexamide (CHX) 100 μg/ml at the indicated intervals and subjected to Western blotting. (FIG. 5C) The protein expression of Snail was analyzed in WT or KO HCT116 cells by treating with or without […] MG132 (proteasome inhibitor) for 6 h, followed by Western blotting. (FIG. 5D) WT or KO HCT116 cells were treated with 10 μM MG132 for 6 h before cell collection. The lysates were subjected to immunoprecipitation using anti-Snail antibody and input. Western blotting was performed with the indicated antibodies to detect ubiquitinated Snail protein. (FIG. 5E) Stability of Snail protein in HCT116 cells after EpEX (50 nM) treatment for 24 h. Cells were treated with cyclohexamide (CHX; 100 μg/ml) for the indicated intervals and then subjected to Western blotting. (FIG. 5F) Expression of the gene encoding SNAIL was detected by qRT-PCR in HCT116 cells after EpEX (50 nM) treatment for 24 h. (FIG. 5G) The protein expression of Snail in HCT116 was analyzed cells by Western blotting after EpEX (50 nM) treatment for 24 h, and treatment with or without 10 μM MG132 (proteasome inhibitor) for 6 h. […]

[2] = test system: GSK3β, active β-catenin and Snail; test: as above; type: cell-based, human; remark: listed apart in the source

Row | Structure (SMILES) | Snail steady-state protein levels ([1]; HCT116 with or without EpEX (50 nM, 24 h), 10 μM MG132 6 h, FIG. 5G) | Snail steady-state protein levels ([1]; WT or EpCAM KO HCT116, for 6 h, FIG. 5C) | Active β-catenin and Snail steady-state protein levels ([2]; 10 μM MG132 and EpAb2-6 for 6 h, FIG. 6I) | active β-catenin and Snail protein expressions ([1]; HCT116, control and EpEX-His (50 nM) treated, 2 μM BIO 24 h, FIG. 4L) | active β-catenin and Snail proteins ([2]; EpAb2-6 and 2 μM BIO 24 h, FIG. 6H)
1 | CC(C)C[C@@H](C=O)NC(=O)[C@H](CC(C)C)NC(=O)[C@H](CC(C)C)NC(=O)OCc1ccccc1 [MG132] (Cbz-Leu-Leu-Leu-aldehyde) | increased Snail steady-state protein levels | increased Snail steady-state protein levels | increased active β-catenin and Snail steady-state protein levels | – | –
2 | O=C1Nc2cc(Br)ccc2/C1=C1/Nc2ccccc2/C1=N\O [BIO] | – | – | – | upregulated both in control and EpEX-treated cells | increased
